From patent US10174038B2, “Compounds and methods for antiviral treatment” (Gilead Sciences, Inc., priority 2012, dated 2019)
Like-named read-outs stand apart in the source and are kept apart here.

Test system: RSV strain A2
Experiment: RSV antiviral activity, in vitro cytoprotection assay in Hep2 cells
Type: cell-based, Respiratory Syncytial Virus (RSV)
Details: for inhibition at 0.5 µM: human respiratory syncytial virus
Method: Antiviral activity against RSV was determined using an in vitro cytoprotection assay in Hep2 cells. […] The method used was similar to methods previously described in published literature (Chapman et al., Antimicrob Agents Chemother. 2007, 51(9):3346-53.)
Hep2 cells were obtained from ATCC (Manassas, Va.) and maintained in MEM media supplemented with 10% fetal bovine serum and penicillin/streptomycin. Cells were passaged twice a week and kept at subconfluent stage. Commercial stock of RSV strain A2 (Advanced Biotechnologies, Columbia, Md.) was titered before compound testing to determine the appropriate dilution of the virus stock that generated desirable cytopathic effect in Hep2 cells.
For antiviral tests, Hep2 cells were seeded into 96-well plates 24 hours before the assay at a density of 3,000 cells/well. On a separate 96 well plate, compounds to be tested were serially diluted in cell culture media. Eight concentrations in 3-fold serial dilution increments were prepared for each tested compound and 100 uL/well of each dilution was transferred in duplicate onto plates with seeded Hep2 cells. Subsequently, appropriate dilution of virus stock previously determined by titration was prepared in cell culture media and 100 uL/well was added to test plates containing cells and serially diluted compounds. Each plate included three wells of infected untreated cells and three wells of uninfected cells that served as 0% and 100% virus inhibition control, respectively. Following the infection with RSV, testing plates were incubated for 4 days in a tissue culture incubator. After the incubation, RSV-induced cytopathic effect was determined using a Cell TiterGlo reagent (Promega, Madison, Wis.) followed by a luminescence read-out. The percentage inhibition was calculated for each tested concentration relative to the 0% and 100% inhibition controls and the EC50 value for each compound was determined by non-linear regression as a concentration inhibiting the RSV-induced cytopathic effect by 50%. Ribavirin (purchased from Sigma, St. Louis, Mo.) was used as a positive control for antiviral activity.
Compounds were also tested for antiviral activity against RSV in Hep2 cells using a 384 well format. Compounds were diluted in DMSO using a 10-step serial dilution in 3-fold increments via automation in 4 adjacent replicates each. Eight compounds were tested per dilution plate. 0.4 uL of diluted compounds were then stamped via Biomek into 384-well plates (Nunc 142761 or 164730 w/lid 264616) containing 20 μL of media (Mediatech Inc. MEM supplemented with Glutamine, 10% FBS and Pen/Strep). DMSO and a suitable positive control compound, such as 80 μM GS-329467 or 10 μM 427346 was used for the 100% and 0% cell killing controls, respectively.
Hep2 cells (1.0×10^5 cells/ml) were prepared as above in batch to at least 40 mls excess of the number of sample plates (8 mls cell mix per plate) and infected with vendor supplied (ABI) RSV strain A2 to arrive at an MOI of 1:1000 (virus:cell #) or 1:3000 (vol virus:cell vol). Immediately after addition of virus, the RSV infected Hep2 cell suspension was added to each stamped 384-well plate at 20 μl per well using a uFlow dispenser, giving a final volume of 40 μL/well, each with 2000 infected cells. The plates were then incubated for 5 days at 37° C. and 5% CO2. Following incubation, the plates were equilibrated to room temperature in a biosafety cabinet hood for 1.5 hrs and 40 μL of Cell-Titer Glo viability reagent (Promega) was added to each well via uFlow. Following a 10-20 minute incubation, the plates were read using an EnVision or Victor Luminescence plate reader (Perkin-Elmer). The data was then uploaded and analyzed on the Bioinformatics portal under the RSV Cell Infectivity and 8-plate EC50-Hep2-384 or 8-plate EC50-Hep2-Envision protocols. […]

[1] = HEp-2, 0.5 μM compound, RSV-induced cytopathic effect in Hep2 cells, % inhibition calculated from fitted 4-parameter dose response curve, normalized to 0% and 100%, read-out: Percent inhibition at 0.5 μM

SMILES	inhibition at 0.5 µM [1]	further results
CC1CN(c2cc(N3CCOCC3)n3nc([C@@H]4CCCCN4C(=O)c4cc(Cl)ccc4NS(C)(=O)=O)cc3n2)C1 [Compound 1]	95%	
Cc1cn2nc([C@@H]3CCCCN3C(=O)c3cc(Cl)ccc3NS(C)(=O)=O)cc2nc1N[C@@H](C)CO [Compound 2]	97%	
Cc1ccc(C(=O)N2CCCC[C@H]2c2cc3nc(N4CC[C@H](N)C4)c(C)cn3n2)c(C)c1 [Compound 4]	100%	
Cc1cn2nc([C@@H]3CCCCN3C(=O)c3ccccc3)cc2nc1N1CC[C@H](N)C1 [Compound 5]	100%	
Cc1cccnc1C(=O)N1CCCC[C@H]1c1cc2nc(N3CC[C@H](N)C3)c(C)cn2n1 [Compound 6]	100%	
Cc1ccncc1C(=O)N1CCCC[C@H]1c1cc2nc(N3CC[C@H](N)C3)c(C)cn2n1 [Compound 7]	100%	
COc1ccc(C)cc1C(=O)N1CCCC[C@H]1c1cc2nc(N3CC[C@H](N)C3)c(C)cn2n1 [Compound 8]	100%	
Cc1cn2nc([C@@H]3CCCCN3C(=O)c3ccccc3OC(F)(F)F)cc2nc1N1CC[C@H](N)C1 [Compound 9]	100%	
COc1ccc(Cl)cc1C(=O)N1CCCC[C@H]1c1cc2nc(N3CC[C@H](N)C3)c(C)cn2n1 [Compound 10]	100%	
Cc1ccc(N2CCCS2(=O)=O)c(C(=O)N2CCCC[C@H]2c2cc3nc(N4CC[C@H](N)C4)c(C)cn3n2)c1 [Compound 11]	100%	
Cc1cc(NS(C)(=O)=O)c(C(=O)N2CCCC[C@H]2c2cc3nc(N4CC[C@H](N)C4)c(C)cn3n2)s1 [Compound 12]	100%	
CC(=O)Nc1sccc1C(=O)N1CCCC[C@H]1c1cc2nc(N3CC[C@H](N)C3)c(C)cn2n1 [Compound 13]	98%	
Cc1cnc(N)c(C(=O)N2CCCC[C@H]2c2cc3nc(N4CC[C@H](N)C4)c(C)cn3n2)c1 [Compound 14]	97%	
Cc1cn2nc([C@@H]3CCCCN3C(=O)c3n[nH]c4ccc(F)cc34)cc2nc1N1CC[C@H](N)C1 [Compound 15]	92%	
Cc1cn2nc([C@@H]3CCCCN3C(=O)c3cccc(C)c3O)cc2nc1N1CC[C@H](N)C1 [Compound 16]	100%	
Cc1cn2nc([C@@H]3CCCCN3C(=O)c3cc4ccccc4[nH]3)cc2nc1N1CC[C@H](N)C1 [Compound 17]	96%	
Cc1cn2nc([C@@H]3CCCCN3C(=O)c3ncccc3Cl)cc2nc1N1CC[C@H](N)C1 [Compound 18]	100%	
CS(=O)(=O)Nc1ccc(Cl)cc1C(=O)N1CCCC[C@H]1c1cc2nc(N3CCC3)cc(N3CCN[C@@H](CO)C3)n2n1 [Compound 19]	100%	
CS(=O)(=O)Nc1ccc(Cl)cc1C(=O)N1CCCC[C@H]1c1cc2nc(N3CCC3)cc(NCCN)n2n1 [Compound 20]		inhibition at 0.5 µM (HEp-2, read-out: Percent inhibition at 0.5 μM): 100%
Cc1cn2nc([C@@H]3CCCCN3C(=O)c3cc(Cl)ccc3NS(C)(=O)=O)cc2nc1N1CC[C@H](CN)C1 [Compound 21]	100%	
Cc1cn2nc([C@@H]3CCCCN3C(=O)C(NS(C)(=O)=O)c3ccccc3Cl)cc2nc1N1C[C@@H](C#N)[C@@H](O)C1 (stereo partly shown) [Compound 22]	100%	
Cc1cn2nc([C@@H]3CCCCN3C(=O)C(NS(C)(=O)=O)c3ccccc3Br)cc2nc1N1C[C@@H](C#N)[C@@H](O)C1 (stereo partly shown) [Compound 23]	100%	
CNc1c(C)c(C)nc2cc([C@@H]3CCCCN3C(=O)c3cc(F)cc(Cl)c3NS(C)(=O)=O)nn12 [Compound 24]	91%	
CNc1c(C)c(C)nc2cc([C@@H]3CCCCN3C(=O)c3cc(Cl)cc(C)c3NS(C)(=O)=O)nn12 [Compound 25]	97%	
Cc1cc(C2CC2)nc2cc([C@@H]3CCCCN3C(=O)c3cc(Cl)cc(Cl)c3NS(C)(=O)=O)nn12 [Compound 26]	97%	

SMILES	inhibition at 0.5 µM [1]	further results
Cc1cn2nc([C@@H]3CCCCN3C(=O)[C@](C)(NS(C)(=O)=O)c3ccccc3)cc2nc1N1CC[C@H](N)C1 [Compound 27]	100%	
Cc1cn2nc([C@@H]3CCCCN3C(=O)[C@@](C)(NS(C)(=O)=O)c3ccccc3)cc2nc1N1CC[C@H](N)C1 [Compound 28]	100%	
Cc1cc(C2CC2)nc2cc([C@@H]3CCCCN3C(=O)c3cc(Cl)cc(F)c3NS(C)(=O)=O)nn12 [Compound 29]	90%	
Cc1cc(C2CC2)nc2cc([C@@H]3CCCCN3C(=O)c3cc(Cl)c(F)cc3NS(C)(=O)=O)nn12 [Compound 30]	91%	
Cc1cc(C2CC2)nc2cc([C@@H]3CCCCN3C(=O)c3ccc(Cl)c(F)c3NS(C)(=O)=O)nn12 [Compound 31]		Percent inhibition at 0.5 μM (0.5 μM compound, RSV-induced cytopathic effect in Hep2 cells, % inhibition calculated from fitted 4-parameter dose response curve, normalized to 0% and 100%): 86%
Cc1nc2cc([C@@H]3CCCCN3C(=O)c3cc(F)cc(Cl)c3NS(C)(=O)=O)nn2c(C)c1C [Compound 32]	85%	
Cc1cn2nc([C@@H]3CCCCN3C(=O)C(NS(C)(=O)=O)c3ccccc3Br)cc2nc1N1CC[C@H](N)C1 (stereo partly shown) [Compound 33]	100%	
Cc1cn2nc([C@@H]3CCCCN3C(=O)C(NS(C)(=O)=O)c3ccccc3Cl)cc2nc1N1CC[C@H](N)C1 (stereo partly shown) [Compound 34]	100%	
Cc1cn2nc([C@@H]3CCCCN3C(=O)c3cc(Cl)ccc3CN=[N+]=[N-])cc2nc1N1CC[C@H](N)C1 [Compound 35]	100%	
Cc1cn2nc([C@@H]3CCCCN3C(=O)c3cc(Cl)ccc3CNS(C)(=O)=O)cc2nc1N1CC[C@H](N)C1 [Compound 36]	100%	
Cc1cn2nc([C@@H]3CCCCN3C(=O)c3cc(Cl)ccc3CN)cc2nc1N1CC[C@H](N)C1 [Compound 37]	100%	
Cc1cn2nc([C@@H]3CCCCN3C(=O)c3cc(Cl)ccc3NS(C)(=O)=O)cc2nc1N1CCC1C (stereo partly shown) [Compound 40]	100%	
C#CC1CCN(c2nc3cc([C@@H]4CCCCN4C(=O)c4cc(Cl)ccc4NS(C)(=O)=O)nn3cc2C)C1 (stereo partly shown) [Compound 41]	100%	
Cc1cn2nc([C@@H]3CCCCN3C(=O)c3cc(Cl)ccc3NS(C)(=O)=O)cc2nc1N1CCC12CNC2 [Compound 42]	100%	
CS(=O)(=O)Nc1ccc(Cl)cc1C(=O)N1CCCC[C@H]1c1cc2nc(N3CCC3)cc(N3CCNC(C#N)C3)n2n1 (stereo partly shown) [Compound 43]	100%	
Cc1cc(N2CC[C@H](N)C2)nc2cc([C@@H]3CCCCN3C(=O)c3cc(Cl)ccc3NS(C)(=O)=O)nn12 [Compound 44]	100%	
Cc1cccc(NS(C)(=O)=O)c1C(=O)N1CCCC[C@H]1c1cc2nc(C3CC3)cc(C)n2n1 [Compound 45]	100%	
Cc1cc(C2CC2)nc2cc([C@@H]3CCCCN3C(=O)c3ccccc3NS(C)(=O)=O)nn12 [Compound 46]	97%	
Cc1cc(C2CC2)nc2cc([C@@H]3CCCCN3C(=O)c3c(NS(C)(=O)=O)cccc3C(F)(F)F)nn12 [Compound 47]	99%	
O=C(c1ccccc1C(F)(F)F)N1CCCC[C@H]1c1cc2nc(N3CC(O)C3)cc(N3CC(O)C3)n2n1 [Compound 50]	100%	
Cc1ccc(NS(C)(=O)=O)c(C(=O)N2CCCC[C@H]2c2cc3nc(C)cc(C)n3n2)c1 [Compound 52]	99%	
CN1CCN(c2cc(N3CC(N)C3)nc3cc([C@@H]4CCCCN4C(=O)c4cc(Cl)ccc4NS(C)(=O)=O)nn23)CC1 [Compound 53]	99%	
O=C(c1cc(Cl)ccc1NS(=O)(=O)CC(F)(F)F)N1CCCC[C@H]1c1cc2nc(N3CCC3)cc(N3CCNCC3)n2n1 [Compound 55]	98%	
CS(=O)(=O)Nc1ccc(Cl)cc1C(=O)N1CCCC[C@H]1c1cc2nc(C3CNC3)cc(N3CCOCC3)n2n1 [Compound 56]	93%	
